Like-named read-outs stand apart in the source and are kept apart here.

The values that follow come from patent publication US6414038B2, “Hydroxystilbenes for reducing/inhibiting protein glycation and combating skin aging” (Societe L'Oreal, priority 1999, dated 2002).

The target in this assay is bovine serum albumin (Bos taurus, UniProt P02769). The assay can be described thus: Inhibition of glycation of bovine serum albumin by D-ribose (AGE fluorescence). It is filed as biochemical. Particulars: for inhibition at 1 µM / inhibition at 10 µM: read-out: % inhibition (of glycation). The protocol: A solution of bovine serum albumin at 1 mg/ml in solution in phosphate buffered saline (PBS) was incubated at 37° C. for 14 days in the presence or in the absence of D-ribose at the concentration of […], of 3,3′,5,5′-tetrahydroxystilbene or of resveratrol, each at the concentrations of 1 μM and 10 μM.
Sequence of bovine serum albumin (P02769 25-607): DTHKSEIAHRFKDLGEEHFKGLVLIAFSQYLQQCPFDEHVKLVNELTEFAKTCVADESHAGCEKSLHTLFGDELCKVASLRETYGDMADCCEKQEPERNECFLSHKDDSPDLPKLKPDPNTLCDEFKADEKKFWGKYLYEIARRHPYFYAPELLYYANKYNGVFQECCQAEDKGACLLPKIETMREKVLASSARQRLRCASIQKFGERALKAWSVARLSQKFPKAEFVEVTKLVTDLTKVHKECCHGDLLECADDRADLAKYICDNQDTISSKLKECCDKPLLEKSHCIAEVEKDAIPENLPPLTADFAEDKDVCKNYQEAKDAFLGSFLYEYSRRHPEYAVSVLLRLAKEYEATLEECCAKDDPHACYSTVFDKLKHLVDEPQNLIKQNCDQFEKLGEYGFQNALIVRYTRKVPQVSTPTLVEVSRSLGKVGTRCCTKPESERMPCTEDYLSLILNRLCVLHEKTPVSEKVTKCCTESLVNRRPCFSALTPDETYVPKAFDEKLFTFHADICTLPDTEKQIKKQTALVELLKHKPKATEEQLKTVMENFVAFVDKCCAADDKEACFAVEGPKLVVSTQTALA
The glycation was evaluated by measuring the fluorescence of the AGEs at λem.=440 nm emitted by each sample after excitation at λex.=370 nm.
The inhibition of glycation was visualized by the reduction in the fluorescence compared with the sample treated with the sugar alone.

With `Oc1cc(O)cc(/C=C/c2cc(O)cc(O)c2)c1` [A, 3,3′,5,5′-tetrahydroxystilbene], the inhibition at 1 µM was determined as 7.1% and the inhibition at 10 µM worked out at 14.3%. Further, the “antiglycation effect relative to resveratrol” value (at the concentration of 10 μM) is reported as about 2 times. For the same molecule, the “antiglycation effect (in words)” value (from the concentration of 1 μM) is recorded as “advantageous antiglycation effect”.
Regarding `Oc1ccc(C=Cc2cc(O)cc(O)c2)cc1` [B, resveratrol, reference compound], under “compound 1 μM, BSA 1 mg/ml in PBS, D-ribose 10 μM, 37° C., 14 days, AGE fluorescence λex 370 nm/λem 440 nm vs sugar alone”, the inhibition at 1 µM came out at 7.1%. The inhibition at 10 µM (compound 10 μM, BSA 1 mg/ml in PBS, D-ribose 10 μM, 37° C., 14 days, AGE fluorescence λex 370 nm/λem 440 nm vs sugar alone) came out at 7.1%.

Broadly, the inhibition is how much of the control response was suppressed.
